Test results reported in patent US20240300934A1, “COMPOUNDS FOR MODULATING MYCOBACTERIUM TUBERCULOSIS RESPONSE” (priority 2021, published 2024).
Values after ≈ are worked out from the molar mass of the structure shown. Where two headings read alike, the source gives them in different places.

What was measured:
[1] = Mouse liver microsomal stability; type: in vitro ADME; settings: mouse liver microsomes
Method: (§1) Assays examining mouse and human liver microsomal stability, kinetic aqueous solubility, mouse and human plasma protein binding and stability, and human cytochrome P450 inhibition characteristics of the compounds were run by BioDuro, Incorporated, using standard protocols as previously described (Wang et al, 2020). hERG inhibition assays were also performed by BioDuro, Incorporated.

Mtb = Mtb growth assay in standard 7H9 media (OD600); settings: 10 μM
Description: Bacterial growth was tracked by measuring OD600 every 3 days for 12 days. […] Bacterial growth was tracked by measurement of D600 every 3 days over 12 days.

[2] = system: murine bone marrow derived macrophages phagosome; assay: Phagosomal maturation assays with sensor beads; type: cell-based, mouse; settings: 10 μM
Method: Carboxyfluorescein (pH readout), DQ-BSA/Alexa Fluor 594 (AF594) (proteolysis readout), and 10,10′-Bis[3-carboxylpropyl]-9,9′-biacridinium (BAC)/AF594 (Cl^− readout) beads were generated as previously described (Podinovskaia et al, 2013; Tan et al, 2013; Tan et al, 2017; Yates et al, 2008). Bone marrow-derived macrophages were isolated from C57BL/6J mice (Jackson Laboratories) and maintained as described above. 2×10^5 macrophages/well were seeded into 96-well clear bottom black plates, and utilized in assays one-two days post-seeding. […] Assay buffer consisted of PBS, pH 7.2, supplemented with 5% FBS, 5 mM dextrose, 1 mM CaCl2, 2.7 mM KCl, and 0.5 mM MgCl2 in the case of assays with the carboxyfluorescein or DQ-BSA/AF594 beads (Buter et al, 2019; Dutta et al, 2020). For assays with the BAC/AF594 beads, assay buffer consisted of PBS, pH 7.2, supplemented with 5% FBS, 5 mM dextrose, 1 mM calcium acetate, 1.35 mM K2SO4, and 0.5 mM MgSO4 (Tan et al, 2013). Sensor beads at ˜2-5 beads/macrophage in appropriate assay buffer were finally added, with data acquisition on a Biotek Synergy H1 microplate reader with bottom read signal detection started within 2-3 minutes of bead addition. Excitation/emission wavelengths were 450 nm/520 nm and 490 nm/520 nm for carboxyfluorescein, 490 nm/520 nm for DQ-BSA, 365 nm/505 nm for BAC, and 590 nm/617 nm for AF594. Each experiment was run with a total of 3-5 replicate wells/condition, with temperature maintained at 37° C. throughout the assay. Wells were read every 2 minutes for 2 hours for the carboxyfluorescein bead assays, every 2 minutes for 4 hours for the DQ-BSA/AF594 bead assays, and every 1 minute for 2 hours for the BAC/AF594 bead assays. Analyses of the results were performed as previously described (Buter et al, 2019; Dutta et al, 2020; Podinovskaia et al, 2013; Tan et al, 2013).

[3] = Kinetic aqueous solubility in pH 7.4 PBS; type: physicochemical; settings: read-out: Kinetic Aqueous Solubility S
Method: as §1

J774 cells = assay: Intracellular drug accumulation assay in J774 cells; settings: 24 h exposure; uninfected J774 cells
[4] = Human plasma protein binding; type: in vitro ADME
Method: as §1

human CYP 450 2C9 = human CYP 450 2C9 (Homo sapiens, UniProt P11712); assay: Human cytochrome P450 inhibition, 2C9; type: in vitro ADME; settings: 10 μM
Sequence of human CYP 450 2C9 (P11712 whole entry): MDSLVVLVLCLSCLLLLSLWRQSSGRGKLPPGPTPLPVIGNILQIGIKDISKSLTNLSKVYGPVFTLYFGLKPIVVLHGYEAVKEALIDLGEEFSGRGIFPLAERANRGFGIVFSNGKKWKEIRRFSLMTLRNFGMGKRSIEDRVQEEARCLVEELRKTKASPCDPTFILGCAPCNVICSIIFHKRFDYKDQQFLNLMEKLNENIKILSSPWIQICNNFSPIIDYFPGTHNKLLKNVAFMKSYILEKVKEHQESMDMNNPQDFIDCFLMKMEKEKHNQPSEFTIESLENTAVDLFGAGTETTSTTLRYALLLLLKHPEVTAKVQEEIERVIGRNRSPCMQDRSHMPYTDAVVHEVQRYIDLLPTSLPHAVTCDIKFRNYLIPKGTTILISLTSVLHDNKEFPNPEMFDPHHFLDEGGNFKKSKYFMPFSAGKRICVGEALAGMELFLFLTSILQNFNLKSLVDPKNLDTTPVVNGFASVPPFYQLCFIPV

Mtb in J774 cells = assay: Mtb growth in J774 macrophage-like cells (mKO fluorescence); type: cell-based, Mycobacterium tuberculosis
Method in brief: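 J774 cells infected with log-phase mKO-expressing Mtb (OD600=0.2 suspension), compounds dosed from 20 μM final in two-fold dilutions to 0.039 μM, or single 10 μM in 96-well format; 37° C., 5% CO2, 6 days. mKO fluorescence read, growth expressed as percent of DMSO control.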

[5] = system: rv2390c′::GFP reporter Mtb strain; type: cell-based, Mycobacterium tuberculosis

SMILES: CCSc1ncc(CN2CCN(c3nc4ccccc4o3)CC2)cn1 [Compound C6, 2-(4-((2-(ethylthio)pyrimidin-5-yl)methyl)piperazin-1-yl)benzo[d]oxazole]
- MLM t1/2 [1]: 48.5 min
- Mtb growth in standard 7H9 media (Mtb): no effect
- increase in [Cl−] during macrophage phagosomal maturation ([2]; BAC/AF594 beads): no significant effect
- macrophage phagosomal proteolytic activity ([2]; DQ-BSA/AF594 beads): did not affect macrophage phagosomal proteolytic activity
- macrophage phagosomal acidification ([2]; carboxyfluorescein beads): did not alter macrophage phagosomal acidification
- solubility kinetic ([3]; PBS, pH 7.4, aqueous buffer, kinetic from dmso stock, Table 2): 76.4 µM (≈ 27.2 µg/mL)
- solubility kinetic ([3]; pH 7.4 phosphate buffered saline (PBS)): 76.4 µM (≈ 27.2 µg/mL)
- intracellular accumulation in J774 cells (J774 cells): dose-dependent accumulation
- protein binding to human plasma [4]: 99.2%
- % inhibition of CYP 2C9 (human CYP 450 2C9): 25.7%
- % Reduction of Intracellular Infection (J774.1 cells) at 10 μM cmpd (Mtb in J774 cells; 10 μM compound, J774.1 cells): 54.2 ± 2.6%
- Mtb growth in J774 cells (in words) (Mtb in J774 cells; 10 μM, 6 days post-infection): Mtb growth inhibition
- inhibition at 10 µM (Mtb in J774 cells; Mycobacterium tuberculosis, J774CELLS, J774, 144 h, read-out: % inhibition compared to Rif in J774 at 10 μM): 40.5 ± 0.6%
- inhibition at 20 µM (Mtb in J774 cells; Mycobacterium tuberculosis, J774CELLS, J774, 144 h, read-out: % inhibition compared to Rif in J774 at 20 μM): 53.6 ± 2.7%
- Inhibition of Mtb growth in J774 cells phenotype (Mtb in J774 cells; compared to C6): Y
- rv2390c′::GFP reporter signal upon Mtb exposure to high [Cl−] (in words) ([5]; 10 μM, 250 mM NaCl): increased rv2390c′::GFP reporter signal
- rv2390c′::GFP Cl− response phenotype ([5]; compared to C6): Y
- rv2390c′::GFP response phenotype ([5]; screen hits, high chloride (250 mM NaCl, pH 6.4)): Increases induction in high
